# Laboratory results reported in PMC9116245, “New 1,2,3-triazole linked ciprofloxacin-chalcones induce DNA damage by inhibiting human topoisomerase I& II and tubulin polymerization” (Journal of Enzyme Inhibition and Medicinal Chemistry, 2022).
# Experiments:
# [1] = molecular target: T1, Human topoisomerase I (Homo sapiens, UniProt P11387); assay: DNA relaxation assay (gel electrophoresis); type: biochemical; details: compounds at their IC50 values
# T1 construct: purchased Topogen Inc., USA TG-1015
# T1 sequence (P11387 1-765): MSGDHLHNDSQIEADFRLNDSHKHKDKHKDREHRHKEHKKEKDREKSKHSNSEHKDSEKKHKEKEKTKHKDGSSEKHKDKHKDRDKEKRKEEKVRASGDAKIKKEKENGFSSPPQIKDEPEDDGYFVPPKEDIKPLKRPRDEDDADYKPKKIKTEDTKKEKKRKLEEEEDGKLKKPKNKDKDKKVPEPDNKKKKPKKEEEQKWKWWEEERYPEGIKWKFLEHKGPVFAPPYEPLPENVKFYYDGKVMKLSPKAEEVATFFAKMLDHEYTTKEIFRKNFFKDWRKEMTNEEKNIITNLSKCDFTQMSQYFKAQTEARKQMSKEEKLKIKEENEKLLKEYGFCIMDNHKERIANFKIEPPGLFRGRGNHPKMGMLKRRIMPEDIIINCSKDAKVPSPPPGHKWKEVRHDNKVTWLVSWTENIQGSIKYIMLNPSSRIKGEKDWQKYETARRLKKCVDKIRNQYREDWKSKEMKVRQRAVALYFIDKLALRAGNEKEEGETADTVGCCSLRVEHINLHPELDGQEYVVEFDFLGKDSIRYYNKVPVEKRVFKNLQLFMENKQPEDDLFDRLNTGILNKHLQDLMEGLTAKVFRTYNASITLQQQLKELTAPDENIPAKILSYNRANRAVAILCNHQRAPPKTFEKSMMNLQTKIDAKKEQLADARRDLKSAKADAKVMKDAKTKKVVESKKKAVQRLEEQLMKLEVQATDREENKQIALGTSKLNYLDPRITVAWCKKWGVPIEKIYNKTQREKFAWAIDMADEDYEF
# Description: Based on our design, we hypothesised that the new CP hybrids 4a-j could act as multi-target ligands that can block the catalytic activity of topoisomerases I (Topo-I), topoisomerases (Topo-II), and inhibit tubulin polymerisation as possible targets for the anti-proliferative activity. First, the Topo-I activity was tested by the DNA relaxation assay. The supercoiled plasmid has been utilised as a substrate in the relaxation assay to study the inhibition of DNA Topo-I activity. […] Two different assays were used to examine the inhibitory activity of IC50 of the CP hybrids against Human topoisomerase I. Firstly; Gel electrophoresis-based assay (DNA relaxation assay) was performed following the manufacturer's protocol (TG-1015, Topogen Inc., USA). Secondly, the inhibitory activity of compounds 4a, 4b, 4e, 4i, 4j, and camptothecin to human topoisomerase I was analysed by Human DNA Topoisomerase I Assay Kit (ProFoldin, Hudson, MA, USA) with recombinant human DNA topoisomerase I (Sigma-Aldrich) according to the manufacturer’s protocol.
# [2] = molecular target: T2, recombinant human DNA topoisomerase I (Homo sapiens, UniProt P11387); assay: Human DNA Topoisomerase I Assay Kit (ProFoldin); type: biochemical; details: compounds at their IC50 values, reference camptothecin
# T2 construct: purchased Sigma-Aldrich
# T2 sequence (P11387 1-765): T1 sequence (P11387 1-765)
# [3] = test system: tubulin polymerisation; assay: Tubulin immunofluorescence microscopy in HCT116 cells; type: cell-based, human; details: HCT116, IC50 of compound, 36 h
# Description: (§1) The process of tubulin polymerisation in the cells is important for the completion of mitosis and is targeted for cancer treatment. It has been reported that the suppression of tubulin polymerisation will arrest the cells at the G2/M and it eventually leads to cell death. To test the tubulin-disruptive effect of the CP hybrids, HCT116 cells were analysed by immunocytochemistry. HCT116 cells were incubated for 36 h with IC50 of the CP hybrids (4a, 4b, 4e, 4i, and 4j), nocodazole (a well-known tubulin polymerisation inhibitor, as a positive control), DMSO or Paclitaxel (a well-known tubulin polymerisation inducer, as a negative control), and tubulin was visualised by immunofluorescence microscopy. An antibody for α-tubulin was used. […] Moreover, a Western blot was performed to verify the tubulin polymerisation inhibition ability of the synthesised compounds (Figure 8(B)). The level of polymerised tubulin was decreased in HCT116 cells treated with IC50 values of CP hybrids 4a, 4b, 4e, 4i, 4j, or nocodazole.
# HCT116 cells were cultured and treated with the IC50 of the potent compounds (4a, 4b, 4e, 4i, and 4j) or DMSO (control), fixed, permeabilized, and they were incubated with either γH2AX or α-tubulin antibody as the reported procedure in the literature. Confocal images were captured using a Confocal Microscope with a 63X objective. All images were processed using ImageJ software. See Supplementary Appendix A.
# [4] = test system: polymerised tubulin; assay: Western blot of polymerised tubulin in HCT116 cells; type: cell-based, human; details: HCT116, IC50 values of compounds
# Description: as §1
# (§2) Western blotting analysis for HCT116 cells was performed according to the reported procedure in the literature[77–79] to determine the effects of CP hybrids; 4a, 4b, 4e, 4i, and 4j on the expression of polymerised tubulin, γH2AX, p-ATR, p-CHK1, and p-Cdc25C by using the appropriate antibody. See Supplementary Appendix A.
# [5] = test system: γH2AX; assay: γH2AX western blotting in HCT116 cells; type: cell-based, human; details: HCT116, IC50 of compound, versus control cells
# Source text: DNA damage is a major reason for inhibiting proliferation and inducing cytotoxicity in cancer cells as well as the main downstream cascade for the Topo-I, Top-II, and tubulin polymerisation inhibition. The phosphorylation of the histone H2AX always occurs after DNA damage forming double-stranded breaks (DSBs). Therefore, we tested the capability of the potent prepared compounds to trigger DNA double strand breaks through detection of the phosphorylation of γH2AX using two different techniques, Immunofluorescence, and western blotting.
# as §2
# [6] = test system: HCT116 cells; assay: Analysis of cell cycle distribution; type: cell-based, human; details: HCT116, different concentrations, 24 h
# Source text: Generally, the mammalian cells counteract the DNA damage by different mechanisms including the cell cycle arrest to allow the cell to repair the damage. There are 2 checkpoints that control DNA damage. The first checkpoint is at the G1/S transition while the other checkpoint is at the G2/M transition. To cover the mechanisms of the synthesised compounds in inhibiting cell proliferation, we analysed the distribution of cell cycle of HCT116 cells following the treatment with different doses of 4a, 4b, 4e, 4i, and 4j. […] See Supplementary Appendix A.
# [7] = test system: ATR/CHK1/Cdc25C pathway; assay: Western blot of ATR-Chk1-Cdc25C cascade in HCT116 cells; type: cell-based, human
# Description: To clarify the molecular mechanism responsible for inducing G2/M phase arrest in HCT116 following the treatment with the synthesised compounds, the signalling in the checkpoint pathway that regulates the G2/M transition was investigated. The mammalian cells respond to the DNA damage through 2 different kinase-signalling cascades (ATR-Chk1 and ATM-Chk2). First, the effect of the synthesised compounds on ATM and ATR phosphorylation was tested. […] Then, the phosphorylation of downstream effectors of ATM/ATR, phospho-Chk1-S269, and phospho-Chk2-T68 kinases was explored. […] It is well known that in vitro activation of Chk1 phosphorylates Cdc25C on serine-216. Therefore, the impact of the synthesised compounds on the Cdc25C phosphorylation at Ser-216 was investigated.
# as §2
compound,measurement,setting,value
"COc1cc(/C=C/C(=O)c2ccc(-n3cc(CN4CCN(c5cc6c(cc5F)c(=O)c(C(=O)O)cn6C5CC5)CC4)nn3)cc2)cc(OC)c1OC [Compound 4j, (E)-1-cyclopropyl-6-fluoro-4-oxo-7–(4-((1–(4-(3-(3,4,5-trimethoxyphenyl)acryloyl)phenyl)-1H-1,2,3-triazol-4-yl)methyl)piperazin-1-yl)-1,4-dihydroquinoline-3-carboxylic acid]","Topo-I catalytic activity, DNA relaxation",[1],could inhibit Topo-I catalytic activity
same,"Top-I inhibitory activity, enzyme assay kit",[2],less potent Top-1 inhibitor
same,"tubulin polymerisation, morphological changes by immunofluorescence",[3],significant tubulin polymerisation inhibition
same,"level of polymerised tubulin, Western blot",[4],decreased
same,"γH2AX protein expression, western blotting",[5],increases in the γH2AX protein expression
same,cell cycle distribution,[6],induced G2/M phase cell cycle arrest in a concentration-dependent manner
same,"expressions of p-ATR, p-CHK1, and p-Cdc25C, Western blot",[7],increased
"O=C(/C=C/c1cccc(Cl)c1)c1ccc(-n2cc(CN3CCN(c4cc5c(cc4F)c(=O)c(C(=O)O)cn5C4CC4)CC3)nn2)cc1 [Compound 4b, (E)-7-(4-((1–(4-(3-(3-chlorophenyl)acryloyl)phenyl)-1H-1,2,3-triazol-4-yl)methyl)piperazin-1-yl)-1-cyclopropyl-6-fluoro-4-oxo-1,4-dihydroquinoline-3-carboxylic acid]","Topo-I catalytic activity, DNA relaxation",[1],could inhibit Topo-I catalytic activity
same,"tubulin polymerisation, morphological changes by immunofluorescence",[3],significant tubulin polymerisation inhibition
same,"level of polymerised tubulin, Western blot",[4],decreased
same,"γH2AX protein expression, western blotting",[5],increases in the γH2AX protein expression
same,cell cycle distribution,[6],induced G2/M phase cell cycle arrest in a concentration-dependent manner
same,"expressions of p-ATR, p-CHK1, and p-Cdc25C, Western blot",[7],increased
"O=C(/C=C/c1ccccc1)c1ccc(-n2cc(CN3CCN(c4cc5c(cc4F)c(=O)c(C(=O)O)cn5C4CC4)CC3)nn2)cc1 [Compound 4a, (E) 7-(4-((1–(4-Cinnamoylphenyl)-1H-1,2,3-triazol-4-yl)methyl)piperazin-1-yl)-1-cyclopropyl-6-fluoro-4-oxo-1,4-dihydroquinoline-3-carboxylic acid]","Topo-I catalytic activity, DNA relaxation",[1],could inhibit Topo-I catalytic activity
same,"Top-I inhibitory activity, enzyme assay kit",[2],highest Top-I inhibitory activity
same,"tubulin polymerisation, morphological changes by immunofluorescence",[3],significant tubulin polymerisation inhibition
same,"level of polymerised tubulin, Western blot",[4],decreased
same,"γH2AX protein expression, western blotting",[5],increases in the γH2AX protein expression
same,cell cycle distribution,[6],induced G2/M phase cell cycle arrest in a concentration-dependent manner
same,"expressions of p-ATR, p-CHK1, and p-Cdc25C, Western blot",[7],increased
"O=C(/C=C/c1ccc(F)cc1)c1ccc(-n2cc(CN3CCN(c4cc5c(cc4F)c(=O)c(C(=O)O)cn5C4CC4)CC3)nn2)cc1 [Compound 4e, (E)-1-cyclopropyl-6-fluoro-7–(4-((1–(4-(3-(4-fluorophenyl)acryloyl)phenyl)-1H-1,2,3-triazol-4-yl)methyl)piperazin-1-yl)-4-oxo-1,4-dihydroquinoline-3-carboxylic acid]","Topo-I catalytic activity, DNA relaxation",[1],could inhibit Topo-I catalytic activity
same,"Top-I inhibitory activity, enzyme assay kit",[2],comparable to camptothecin
same,"tubulin polymerisation, morphological changes by immunofluorescence",[3],significant tubulin polymerisation inhibition
same,"level of polymerised tubulin, Western blot",[4],decreased
same,"γH2AX protein expression, western blotting",[5],increases in the γH2AX protein expression
same,cell cycle distribution,[6],induced G2/M phase cell cycle arrest in a concentration-dependent manner
same,"expressions of p-ATR, p-CHK1, and p-Cdc25C, Western blot",[7],increased
"COc1ccc(/C=C/C(=O)c2ccc(-n3cc(CN4CCN(c5cc6c(cc5F)c(=O)c(C(=O)O)cn6C5CC5)CC4)nn3)cc2)cc1OC [Compound 4i, (E)-1-cyclopropyl-7-(4-((1-(4-(3–(3,4-dimethoxyphenyl)acryloyl)phenyl)-1H-1,2,3-triazol-4-yl)methyl)piperazin-1-yl)-6-fluoro-4-oxo-1,4-dihydroquinoline-3-carboxylic acid]","Topo-I catalytic activity, DNA relaxation",[1],could inhibit Topo-I catalytic activity
same,"tubulin polymerisation, morphological changes by immunofluorescence",[3],significant tubulin polymerisation inhibition
same,"level of polymerised tubulin, Western blot",[4],decreased
same,"γH2AX protein expression, western blotting",[5],increases in the γH2AX protein expression
same,cell cycle distribution,[6],induced G2/M phase cell cycle arrest in a concentration-dependent manner
same,"expressions of p-ATR, p-CHK1, and p-Cdc25C, Western blot",[7],increased
